Source: patent US11427548B2 (Arvinas Operations, Inc., priority 2015, dated 2022)
Like-named read-outs stand apart in the source and are kept apart here.

Tests used:
Androgen Receptor [1] = molecular target: T1, Androgen Receptor (Homo sapiens, UniProt P10275); test: Androgen Receptor ELISA assay (PathScan AR ELISA) in VCaP cells: AR degradation, Dmax and DC50; assay type: cell-based
T1 construct: endogenous in cells; host or cells: VCaP cells
T1 sequence (P10275 1-920): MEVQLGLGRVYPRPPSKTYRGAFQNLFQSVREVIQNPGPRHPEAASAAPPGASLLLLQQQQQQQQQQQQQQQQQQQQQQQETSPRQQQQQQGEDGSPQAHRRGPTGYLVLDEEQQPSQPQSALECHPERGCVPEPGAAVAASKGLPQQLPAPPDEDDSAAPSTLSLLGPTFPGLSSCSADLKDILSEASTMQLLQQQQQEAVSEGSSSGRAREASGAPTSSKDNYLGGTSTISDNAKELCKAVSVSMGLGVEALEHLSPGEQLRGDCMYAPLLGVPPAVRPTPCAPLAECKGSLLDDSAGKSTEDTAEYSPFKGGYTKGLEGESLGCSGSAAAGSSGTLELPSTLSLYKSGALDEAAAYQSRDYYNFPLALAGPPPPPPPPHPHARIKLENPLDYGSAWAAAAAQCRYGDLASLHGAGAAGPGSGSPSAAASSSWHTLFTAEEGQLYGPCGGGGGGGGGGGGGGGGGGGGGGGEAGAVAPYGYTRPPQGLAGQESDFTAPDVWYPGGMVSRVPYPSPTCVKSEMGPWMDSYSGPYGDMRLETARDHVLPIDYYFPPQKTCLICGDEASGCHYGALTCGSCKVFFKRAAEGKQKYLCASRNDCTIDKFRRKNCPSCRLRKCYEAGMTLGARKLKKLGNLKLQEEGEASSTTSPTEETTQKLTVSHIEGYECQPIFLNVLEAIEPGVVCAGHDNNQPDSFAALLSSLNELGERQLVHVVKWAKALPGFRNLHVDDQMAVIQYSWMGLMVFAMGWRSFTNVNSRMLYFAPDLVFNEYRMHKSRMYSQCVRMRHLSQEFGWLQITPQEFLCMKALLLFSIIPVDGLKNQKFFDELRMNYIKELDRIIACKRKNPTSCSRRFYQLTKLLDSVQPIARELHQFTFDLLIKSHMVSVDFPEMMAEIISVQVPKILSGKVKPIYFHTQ
Summary of the method: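 After 24 h exposure of VCaP cells (charcoal-stripped serum, 0.1 nM R1881 agonist, 0.1% DMSO) to seven half-log compound concentrations, residual AR in lysates was measured by PathScan ELISA (TMB absorbance, 450 nm). Cells were plated at 30,000/well and grown at least 3 days beforehand.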

Androgen Receptor [2] = molecular target: T2, Androgen Receptor (Homo sapiens, UniProt P10275+P40337, T878A); test: Androgen Receptor ELISA assay (PathScan AR ELISA) in LNCaP cells: AR degradation, Dmax and DC50; assay type: cell-based; conditions: for DC50: concentration that caused 50% Androgen Receptor degradation
T2 construct: Compounds have been evaluated in this assay in LNCaP and/or VCaP cells utilizing similar protocols; endogenous in cells; host or cells: LNCaP cells

[3] = highest percentage of Androgen Receptor degradation observed
[4] = read-out: VCaP DC50; concentration that caused 50% Androgen Receptor degradation, VCaP cells
[5] = read-out: VCaP DC50; VCaP cells; concentration that caused 50% Androgen Receptor degradation
[6] = highest percentage of Androgen Receptor degradation

T2 sequence (P10275 whole entry T878A): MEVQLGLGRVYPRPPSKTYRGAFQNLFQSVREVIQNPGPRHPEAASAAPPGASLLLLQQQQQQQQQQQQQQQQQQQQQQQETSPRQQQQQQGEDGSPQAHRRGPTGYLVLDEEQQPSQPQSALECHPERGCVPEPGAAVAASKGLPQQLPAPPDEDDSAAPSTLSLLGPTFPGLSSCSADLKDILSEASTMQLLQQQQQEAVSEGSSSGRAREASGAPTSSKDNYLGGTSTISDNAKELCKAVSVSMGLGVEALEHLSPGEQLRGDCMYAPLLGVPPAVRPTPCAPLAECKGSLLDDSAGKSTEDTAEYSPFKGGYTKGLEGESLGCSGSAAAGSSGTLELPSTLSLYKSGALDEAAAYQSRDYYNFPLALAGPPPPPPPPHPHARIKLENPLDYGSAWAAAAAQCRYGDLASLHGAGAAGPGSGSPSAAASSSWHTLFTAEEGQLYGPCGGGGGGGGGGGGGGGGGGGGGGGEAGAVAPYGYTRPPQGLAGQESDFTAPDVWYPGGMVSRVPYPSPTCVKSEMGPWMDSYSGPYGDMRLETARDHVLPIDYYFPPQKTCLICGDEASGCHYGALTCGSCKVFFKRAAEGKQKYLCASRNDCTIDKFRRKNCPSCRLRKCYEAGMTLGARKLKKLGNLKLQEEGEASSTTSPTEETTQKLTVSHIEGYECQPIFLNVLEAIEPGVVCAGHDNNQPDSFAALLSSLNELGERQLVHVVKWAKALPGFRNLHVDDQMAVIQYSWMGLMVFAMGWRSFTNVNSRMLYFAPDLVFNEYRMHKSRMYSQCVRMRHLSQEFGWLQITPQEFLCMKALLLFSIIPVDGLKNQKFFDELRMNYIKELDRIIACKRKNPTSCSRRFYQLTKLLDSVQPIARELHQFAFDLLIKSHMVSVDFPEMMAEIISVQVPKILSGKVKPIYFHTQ
T2 sequence (P40337 whole entry): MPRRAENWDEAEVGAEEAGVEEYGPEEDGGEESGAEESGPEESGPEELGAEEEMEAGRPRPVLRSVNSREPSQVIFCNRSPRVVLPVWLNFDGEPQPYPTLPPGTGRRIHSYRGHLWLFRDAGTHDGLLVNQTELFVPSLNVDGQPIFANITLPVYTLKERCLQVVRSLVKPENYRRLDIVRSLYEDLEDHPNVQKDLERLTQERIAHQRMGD
T2 sequence (Q15369 whole entry partner): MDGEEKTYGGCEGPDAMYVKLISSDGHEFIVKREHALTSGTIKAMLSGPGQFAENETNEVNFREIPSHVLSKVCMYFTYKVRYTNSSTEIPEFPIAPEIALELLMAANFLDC
T2 sequence (Q15370 whole entry partner): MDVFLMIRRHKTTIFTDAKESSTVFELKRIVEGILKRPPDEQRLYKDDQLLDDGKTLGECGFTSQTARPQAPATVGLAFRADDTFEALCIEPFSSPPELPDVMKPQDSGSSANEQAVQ

SMILES	Dmax (Androgen Receptor [1]; VCaP, read-out: VCaP Dmax (%))	DC50 (Androgen Receptor [2])	Dmax (Androgen Receptor [2]; [3])	DC50 (Androgen Receptor [1]; [4])	DC50 (Androgen Receptor [1]; [5])	Dmax (Androgen Receptor [2]; [6])
Cc1ncsc1-c1ccc(CNC(=O)[C@@H]2C[C@@H](O)CN2C(=O)[C@@H](NC(=O)COCC#CC#CCOc2ccc(N3C(=S)N(c4ccc(C#N)c(C(F)(F)F)c4)C(=O)C3(C)C)cc2)C(C)(C)C)cc1 [Example 54, (2S,4R)-1-((S)-2-(2-(6-(4-(3-(4-cyano-3-(trifluoromethyl)phenyl)-5,5-dimethyl-4-oxo-2-thioxoimidazolidin-1-yl)phenoxy)hexa-2,4-diynyloxy)acetamido)-3,3-dimethylbutanoyl)-4-hydroxy-N-(4-(4-methylthiazol-5-yl)benzyl)pyrrolidine-2-carboxamide]	> 71%	> 0.501 µM	< 25%	–	–	–
Cc1ncsc1-c1ccc(CNC(=O)[C@@H]2C[C@@H](O)CN2C(=O)[C@@H](NC(=O)CCCOCC#CC#CCOc2ccc(N3C(=S)N(c4ccc(C#N)c(C(F)(F)F)c4)C(=O)C3(C)C)cc2)C(C)(C)C)cc1 [Example 56, (2S,4R)-1-[(2S)-2-(4-{[6-(4-{3-[4-cyano-3-(trifluoromethyl)phenyl]-5,5-dimethyl-4-oxo-2-sulfanylideneimidazolidin-1-yl}phenoxy)hexa-2,4-diyn-1-yl]oxy}butanamido)-3,3-dimethylbutanoyl]-4-hydroxy-N-{[4-(4-methyl-1,3-thiazol-5-yl)phenyl]methyl}pyrrolidine-2-carboxamide]	< 25%	> 0.501 µM	26 to 50%	–	–	–
Cc1ncsc1-c1ccc(CNC(=O)[C@@H]2C[C@@H](O)CN2C(=O)[C@@H](NC(=O)CCOCCOc2ccc(-c3ccc(N4C(=S)N(c5ccc(C#N)c(C(F)(F)F)c5)C(=O)C4(C)C)cc3)cc2)C(C)(C)C)cc1 [Example 70, (2S,4R)-1-[(2S)-2-(3-{2-[4-(4-{3-[4-cyano-3-(trifluoromethyl)phenyl]-5,5-dimethyl-4-oxo-2-sulfanylideneimidazolidin-1-yl}phenyl)phenoxy]ethoxy}propanamido)-3,3-dimethylbutanoyl]-4-hydroxy-N-{[4-(4-methyl-1,3-thiazol-5-yl)phenyl]methyl}pyrrolidine-2-carboxamide]	26 to 50%	< 0.05 µM	> 71%	< 0.05 µM	–	–
Cc1ncsc1-c1ccc(CNC(=O)[C@@H]2C[C@@H](O)CN2C(=O)[C@@H](NC(=O)Cc2cccc(OCCCOCCOc3ccc(N4C(=S)N(c5ccc(C#N)c(C(F)(F)F)c5)C(=O)C4(C)C)cc3)c2)C(C)(C)C)cc1 [Example 298]	26 to 50%	0.051 to 0.5 µM	–	–	0.051 to 0.5 µM	51 to 70%
Cc1ncsc1-c1ccc([C@H](C)NC(=O)[C@@H]2C[C@@H](O)CN2C(=O)[C@@H](NC(=O)COCCCOCCCCCOc2ccc(N3C(=S)N(c4ccc(C#N)c(C(F)(F)F)c4)C(=O)C3(C)C)cc2F)C(C)(C)C)cc1 [Example 10, (2S,4R)-1-[(2S)-2-[2-(3-{[5-(4-{3-[4-cyano-3-(trifluoromethyl)phenyl]-5,5-dimethyl-4-oxo-2-sulfanylideneimidazolidin-1-yl}-2-fluorophenoxy)pentyl]oxy}propoxy)acetamido]-3,3-dimethylbutanoyl]-4-hydroxy-N-[(1S)-1-[4-(4-methyl-1,3-thiazol-5-yl)phenyl]ethyl]pyrrolidine-2-carboxamide]	51 to 70%	< 0.05 µM	> 71%	< 0.05 µM	–	–
Cc1ncsc1-c1ccc(CNC(=O)[C@@H]2C[C@@H](O)CN2C(=O)[C@@H](NC(=O)CCCOc2ccc(CCOc3ccc(N4C(=S)N(c5ccc(C#N)c(C(F)(F)F)c5)C(=O)C4(C)C)cc3)cc2)C(C)(C)C)cc1 [Example 302]	51 to 70%	0.051 to 0.5 µM	–	–	< 0.05 µM	> 71%
Cc1ncsc1-c1ccc(CNC(=O)[C@@H]2C[C@@H](O)CN2C(=O)[C@@H](NC(=O)COCCCOCCOc2cccc(-c3ccc(N4C(=S)N(c5ccc(C#N)c(C(F)(F)F)c5)C(=O)C4(C)C)cc3)c2)C(C)(C)C)cc1 [Example 288]	26 to 50%	< 0.05 µM	–	–	< 0.05 µM	> 71%
Cc1ncsc1-c1ccc([C@H](C)NC(=O)[C@@H]2C[C@@H](O)CN2C(=O)[C@@H](NC(=O)COCCCOCCCCCOc2c(F)cc(N3C(=S)N(c4ccc(C#N)c(C(F)(F)F)c4)C(=O)C3(C)C)cc2F)C(C)(C)C)cc1 [Example 11, (2S,4R)-1-[(2S)-2-[2-(3-{[5-(4-{3-[4-cyano-3-(trifluoromethyl)phenyl]-5,5-dimethyl-4-oxo-2-sulfanylideneimidazolidin-1-yl}-2,6-difluorophenoxy)pentyl]oxy}propoxy)acetamido]-3,3-dimethylbutanoyl]-4-hydroxy-N-[(1S)-1-[4-(4-methyl-1,3-thiazol-5-yl)phenyl]ethyl]pyrrolidine-2-carboxamide]	51 to 70%	< 0.05 µM	> 71%	< 0.05 µM	–	–
Cc1ncsc1-c1ccc(CNC(=O)[C@@H]2C[C@@H](O)CN2C(=O)[C@@H](NC(=O)CCOc2ccc(CCOc3ccc(N4C(=S)N(c5ccc(C#N)c(C(F)(F)F)c5)C(=O)C4(C)C)cc3)cc2)C(C)(C)C)cc1 [Example 306]	51 to 70%	< 0.05 µM	–	–	–	> 71%
Cc1ncsc1-c1ccc(CNC(=O)[C@@H]2C[C@@H](O)CN2C(=O)[C@@H](NC(=O)COCCCCCOCCCOc2ccc(N3C(=S)N(c4ccc(C#N)c(C(F)(F)F)c4)C(=O)C3(C)C)cc2)C(C)(C)C)cc1 [Example 295]	26 to 50%	< 0.05 µM	–	–	< 0.05 µM	> 71%
Cc1ncsc1-c1ccc(CNC(=O)[C@@H]2C[C@@H](O)CN2C(=O)[C@@H](NC(=O)COCCCOCCCCOc2ccc(N3C(=S)N(c4ccc(C#N)c(Cl)c4)C(=O)C3(C)C)cc2)C(C)(C)C)cc1 [Example 31, (2S,4R)-1-[(2S)-2-{2-[3-(4-{4-[3-(3-chloro-4-cyanophenyl)-5,5-dimethyl-4-oxo-2-sulfanylideneimidazolidin-1-yl]phenoxy}butoxy)propoxy]acetamido}-3,3-dimethylbutanoyl]-4-hydroxy-N-{[4-(4-methyl-1,3-thiazol-5-yl)phenyl]methyl}pyrrolidine-2-carboxamide]	> 71%	< 0.05 µM	> 71%	< 0.05 µM	–	–
Cc1ncsc1-c1ccc(CNC(=O)[C@@H]2C[C@@H](O)CN2C(=O)[C@@H](NC(=O)COCCCOCCCCOc2ccc(N3C(=S)N(c4ccc(C#N)c(C(F)(F)F)c4)C(=O)C3(C)C)cc2F)C(C)(C)C)cc1 [Example 27, (2S,4R)-1-[(2S)-2-(2-{3-[4-(4-{3-[4-cyano-3-(trifluoromethyl)phenyl]-5,5-dimethyl-4-oxo-2-sulfanylideneimidazolidin-1-yl}-2-fluorophenoxy)butoxy]propoxy}acetamido)-3,3-dimethylbutanoyl]-4-hydroxy-N-{[4-(4-methyl-1,3-thiazol-5-yl)phenyl]methyl}pyrrolidine-2-carboxamide]	> 71%	< 0.05 µM	> 71%	< 0.05 µM	–	–
